Measurements as given in US9067934B2, “Bicyclic pyridinones” (Pfizer Inc., priority 2011, dated 2015).
Structures can show the parent of a compound that is named as a salt.

System: production of amyloid beta protein Aβ(1-42) (γ-secretase) in human WT-APP overexpressing CHO cells
Assay: Cell-Based γ-Secretase Assay with ELISA Readout
Details: human WT-APP overexpressing CHO cells, ~24 hours at 37° C., Aβ(1-42) ELISA; footnotes: a = geometric mean of >15 determinations, b = single determination, c = geometric mean of 7-15 determinations; read-out: Aβ 42B IC50 (Geometric Mean of 2-6 Determinations)
Description: Cell-Based γ-Secretase Assay with ELISA Readout
The ability of compounds to modulate production of amyloid beta protein Aβ(1-42) was determined using human WT-APP overexpressing CHO cells. Cells were plated at 22,000 cells/100 μL well in 96 well tissue culture treated, clear plates (Falcon) in DMEM/F12 based medium and incubated for 24 hours at 37° C. Compounds for testing were diluted in 100% DMSO to achieve an eleven points, half log, dose response for IC50 determinations. Compounds were added in fresh medium to achieve 1% final DMSO. Appropriate vehicle or inhibitor controls were added into control wells individually to obtain minimum or maximum inhibition values, respectively, for the assay signal window before the plates were incubated for ˜24 hours at 37° C. This procedure produces conditioned media in each well which is tested for Aβ(1-42) levels in the ELISA detection step described next. The remaining cell cultures in each well are also tested for cell toxicity as described below.
Coating of ELISA assay plates was initiated by addition of 50 μL/well of an in-house Aβ(1-42) specific antibody at (3 μg/mL) in 0.1 M NaHCO3 (pH 9.0) into black 384-well Maxisorp® plates (Nunc) and incubated overnight at 4° C. The capture antibody was then aspirated from the ELISA assay plates and plates were washed 4×100 μL with Wash Buffer (Dulbecco's PBS, 0.05% Tween 20). 90 μL/well of Blocking Buffer (Dulbecco's PBS, 1.0% BSA (Sigma A7030)) was then added to plates. Ambient temperature incubation was allowed to proceed for a minimum of two hours. Blocking buffer was then removed and 20 μL/well Assay Buffer (Dulbecco's PBS, 1.0% BSA (Sigma A7030), 0.05% Tween 20) was then added. At this point, 40 μL (in duplicate) of experimental conditioned media (described above) were transferred into wells of the blocked ELISA plates containing the capture antibody, followed by overnight incubation at 4° C. Cell toxicity was also measured in the corresponding remaining cells after removal of the conditioned media for the Aβ(1-42) assay by a colorimetric cell proliferation assay (CellTiter 96® AQueous One Solution Cell Proliferation Assay, Promega) according to the manufacturer's instructions.
After overnight incubation of the ELISA assay plates at 4° C., unbound Aβ peptides were removed via (4×100 μL) washes with Wash Buffer. Europium (Eu) labeled (custom labeled, Perkin Elmer) Aβ(1-16) 6e10 Monoclonal Antibody (Covance #SIG-39320) was added, (50 μL/well Eu-6e10 @ 1:10,000, 20 uM EDTA) in Assay Buffer. Incubation at ambient temperature for a minimum of 2 hours was followed by (4×100 μL) washes with Wash Buffer, before 30 μL/well of Delfia Enhancement Solution (Perkin Elmer) was added. Following an one hour ambient temperature incubation, the plates were read on an EnVision plate reader (Perkin Elmer) using standard DELFIA TRF settings. Data analysis including inhibitory IC50 determination was performed using nonlinear regression fit analysis (in-house software) and the appropriate plate mean values for the maximum and minimum inhibition controls.

SMILES	IC50 [nM]
Cc1cn(-c2ccc3n(c2=O)CCN(CCOc2cccc4c2CCCC4)C3=O)cn1 [Example 14, 7-(4-methyl-1H-imidazol-1-yl)-2-[2-(5,6,7,8-tetrahydronaphthalen-1-yloxy)ethyl]-3,4-dihydro-2H-pyrido[1,2-a]pyrazine-1,6-dione]	197
Cc1cn(-c2ccc3n(c2=O)CCN(CCOc2ccccc2-c2cc(C(F)F)no2)C3=O)cn1 [Example 58, 2-(2-{2-[3-(difluoromethyl)isoxazol-5-yl]phenoxy}ethyl)-7-(4-methyl-1H-imidazol-1-yl)-3,4-dihydro-2H-pyrido[1,2-a]pyrazine-1,6-dione, trifluoroacetate salt]	72.1
Cc1cn(-c2ccc3n(c2=O)CCN(CCOc2cccc4c2c2ccccc2n4C)C3=O)cn1 [Example 71, 2-{2-[(9-methyl-9H-carbazol-4-yl)oxy]ethyl}-7-(4-methyl-1H-imidazol-1-yl)-3,4-dihydro-2H-pyrido[1,2-a]pyrazine-1,6-dione, trifluoroacetate salt]	4.22
Cc1cn(-c2ccc3n(c2=O)CCN(CCOc2cc(Cl)c(Cl)cc2Cl)C3=O)cn1 [Example 30, 7-(4-methyl-1H-imidazol-1-yl)-2-[2-(2,4,5-trichlorophenoxy)ethyl]-3,4-dihydro-2H-pyrido[1,2-a]pyrazine-1,6-dione]	132
Cc1cn(-c2ccc3n(c2=O)CCN(CCOc2cccc4[nH]c(C(F)(F)F)cc24)C3=O)cn1 [Example 101, 7-(4-methyl-1H-imidazol-1-yl)-2-(2-{[2-(trifluoromethyl)-1H-indol-4-yl]oxy}ethyl)-3,4-dihydro-2H-pyrido[1,2-a]pyrazine-1,6-dione]	456
Cc1cn(-c2ccc3n(c2=O)CCN(CCOc2ccnc4ccc(C(F)(F)F)cc24)C3=O)cn1 [Example 69, 7-(4-methyl-1H-imidazol-1-yl)-2-(2-{[6-(trtfluoromethyl)quinolin-4-yl]oxy}ethyl)-3,4-dihydro-2H-pyrido[1,2-a]pyrazine-1,6-dione]	58.3
Cc1cn(-c2ccc3n(c2=O)CCN(CCOc2ncc(Cl)c4ccccc24)C3=O)cn1 [Example 68, 2-{2-[(4-chloroisoquinolin-1-yl)oxy]ethyl}-7-(4-methyl-1H-imidazol-1-yl)-3,4-dihydro-2H-pyrido[1,2-a]pyrazine-1,6-dione, trifluoroacetate salt]	59.4
Cc1cn(-c2ccc3n(c2=O)CCN(CCOc2ccc(F)cc2C2CC2)C3=O)cn1 [Example 21, 2-[2-(2-cyclopropyl-4-fluorophenoxy)ethyl]-7-(4-methyl-1H-imidazol-1-yl)-3,4-dihydro-2H-pyrido[1,2-a]pyrazine-1,6-dione]	262
O=C1c2ccc(-n3cnc(Cl)c3)c(=O)n2CCN1CCOc1ccc(Cl)cc1C(F)(F)F [Example 113, 7-(4-chloro-1H-imidazol-1-yl)-2-{2-[4-chloro-2-(trifluoromethyl)phenoxy]ethyl}-3,4-dihydro-2H-pyrido[1,2-a]pyrazine-1,6-dione]	292
Cc1cn(-c2ccc3n(c2=O)CCN(CCOc2ccccc2-c2ccccc2)C3=O)cn1 [Example 34, 2-[2-(biphenyl-2-yloxy)ethyl]-7-(4-methyl-1H-imidazol-1-yl)-3,4-dihydro-2H-pyrido[1,2-a]pyrazine-1,6-dione, trifluoroacetate salt]	262
Cc1cn(-c2ccc3n(c2=O)CCN(CCOc2cc(C(F)(F)F)nc4c(C)cc(Cl)cc24)C3=O)cn1 [Example 62, 2-(2-{[6-chloro-8-methyl-2-(trifluoromethyl)quinolin-4-yl]oxy}ethyl)-7-(4-methyl-1H-imidazol-1-yl)-3,4-dihydro-2H-pyrido[1,2-a]pyrazine-1,6-dione]	39.7
Cc1cn(-c2ccc3n(c2=O)CCN(CCOc2ccccc2-c2sncc2C)C3=O)cn1 [Example 37, 7-(4-methyl-1H-imidazol-1-yl)-2-{2-[2-(4-methylisothiazol-5-yl)phenoxy]ethyl}-3,4-dihydro-2H-pyrido[1,2-a]pyrazine-1,6-dione, trifluoroacetate salt]	219
Cc1cn(-c2ccc3n(c2=O)CCN(CCOc2ccccc2-c2cc4ccccc4o2)C3=O)cn1 [Example 92, 2-{2-[2-(1-benzofuran-2-yl)phenoxy]ethyl}-7-(4-methyl-1H-imidazol-1-yl)-3,4-dihydro-2H-pyrido[1,2-a]pyrazine-1,6-dione, formate salt]	4.87
Cc1cn(-c2ccc3n(c2=O)CCN(CCOc2ccccc2-c2cc(C)ns2)C3=O)cn1 [Example 24, 7-(4-methyl-1H-imidazol-1-yl)-2-{2-[2-(3-methylisothiazol-5-yl)phenoxy]ethyl}-3,4-dihydro-2H-pyrido[1,2-a]pyrazine-1,6-dione]	104
Cc1cn(-c2ccc3n(c2=O)CCN(CCOc2cccc4c2CC(F)(F)C4)C3=O)cn1 [Example 108, 2-{2-[(2,2-difluoro-2,3-dihydro-1H-inden-4-yl)oxy]ethyl}-7-(4-methyl-1H-imidazol-1-yl)-3,4-dihydro-2H-pyrido[1,2-a]pyrazine-1,6-dione]	46.8
COc1ccc(-c2cc(C(F)(F)F)[nH]n2)c(OCCN2CCn3c(ccc(-n4cnc(C)c4)c3=O)C2=O)c1 [Example 54, 2-(2-{5-methoxy-2-[5-(trifluoromethyl)-1H-pyrazol-3-yl]phenoxy}ethyl)-7-(4-methyl-1H-imidazol-1-yl)-3,4-dihydro-2H-pyrido[1,2-a]pyrazine-1,6-dione]	215
Cc1cn(-c2ccc3n(c2=O)CCCN(CCOc2ccc(Cl)cc2C(F)(F)F)C3=O)cn1 [Example 111, 2-{2-[4-chloro-2-(trifluoromethyl)phenoxy]ethyl}-8-(4-methyl-1H-imidazol-1-yl)-2,3,4,5-tetrahydropyrido[1,2-a][1,4]diazepine-1,7-dione]	138
Cc1cn(-c2ccc3n(c2=O)CCN(CCOc2cccc(Cl)c2Cl)C3=O)cn1 [Example 33, 2-[2-(2,3-dichlorophenoxy)ethyl]-7-(4-methyl-1H-imidazol-1-yl)-3,4-dihydro-2H-pyrido[1,2-a]pyrazine-1,6-dione, trifluoroacetate salt]	194
COc1ccc(OCCN2CCn3c(ccc(-n4cnc(C)c4)c3=O)C2=O)c2ccccc12 [Example 8, 2-{2-[(4-methoxy-1-naphthyl)oxy]ethyl}-7-(4-methyl-1H-imidazol-1-yl)-3,4-dihydro-2H-pyrido[1,2-a]pyrazine-1,6-dione]	93
Cc1cn(-c2ccc3n(c2=O)CCN(CCOc2cccc4cc(F)c(F)cc24)C3=O)cn1 [Example 96, 2-{2-[(6,7-difluoronaphthalen-1-yl)oxy]ethyl}-7-(4-methyl-1H-imidazol-1-yl)-3,4-dihydro-2H-pyrido[1,2-a]pyrazine-1,6-dione, trifluoroacetate salt]	48.2
Cc1cn(-c2ccc3n(c2=O)CCN(CCOc2cccc4sc5ccccc5c24)C3=O)cn1 [Example 79, 2-[2-(dibenzo[b,d]thien-1-yloxy)ethyl]-7-(4-methyl-1H-imidazol-1-yl)-3,4-dihydro-2H-pyrido[1,2-a]pyrazine-1,6-dione]	7.23
Cc1cn(-c2ccc3n(c2=O)CCN(CCOc2ccc(F)cc2C2(C(F)(F)F)CCO2)C3=O)cn1 (stereo not shown) [Example 122, 2-(2-{4-fluoro-2-[2-(trifluoromethyl)oxetan-2-yl]phenoxy}ethyl)-7-(4-methyl-1H-imidazol-1-yl)-3,4-dihydro-2H-pyrido[1,2-a]pyrazine-1,6-dione, trifluoroacetate salt]	85.6
